Test system: human leukemia cell line K562
Assay: In vitro antitumor/anticancer testing (CCK-8), K562
Assay type: cell-based
Conditions: 48 h, read-out: Percent growth inhibition
Procedure: Each of Tea Product 1 and Conventional Tea Product obtained in section A of this example was used to prepare test tea samples according to the method described below. A proper amount of the respective tea product was added into sterile water to prepare a stock solution with a concentration of 100 mg/mL, followed by using a membrane filter with a pore size of 0.22 μm to conduct vacuum filtration and sterilization. The resulting stock solution was diluted with a respective complete medium shown in Table 3 below to form test tea samples with different concentrations. In other words, the thus obtained test tea samples to be used for treating a respective cancer/tumor cell line shown in Table 3 were prepared using the same complete medium as that for the respective cancer/tumor cell line.
Specifically, each of the aforesaid commercially available agents was subjected to the method described below to prepare comparative test samples. A proper amount of a respective commercially available agent was dissolved in phosphate-buffered saline (PBS) to prepare a stock solution with a concentration of 5 mg/mL, followed by using a membrane filter with a pore size of 0.22 μm to conduct vacuum filtration and sterilization. The resulting stock solution was diluted with a respective complete medium shown in Table 3 below to form comparative test samples with different concentrations. To be specific, the comparative test samples prepared from the respective commercially available agent have the concentrations shown in Table 2 below. The thus obtained comparative test samples to be used for treating a respective cancer/tumor cell line shown in Table 3 were prepared using the same complete medium as that for the respective cancer/tumor cell line.
The cultivation of each cancer/tumor cell line is described as follows. […] Afterwards, a cell suspension having a cell density of 1.0×10^4 cells/mL was prepared.
As experimental groups, the tumor/cancer cells of each cell line were treated with the test tea samples prepared from one or more of the tea products and the comparative test samples prepared from one or more of the commercially available agents as obtained in section B of this example (for more detailed information about the tea product(s) and the commercially available product (s) used to treat each cell line, please see Table 4 below). To be specific, 6 to 10 test tea samples prepared from the same tea product and having different concentrations, as well as 6 to 10 comparative test samples prepared from the same commercially available agent and having different concentrations, were utilized to treat the tumor/cancer cells of each cell line. For each experimental group, 6 repetitions of tumor/cancer treatment were performed. For the control group, 100 μL of PBS was added to a well containing the medium and the cancer/tumor cells of the respective cell line. For the blank group, 100 μL of PBS was added to a well containing a complete medium the same as that used for cultivation of the cancer/tumor cells of the respective cell line.
After the treatment described above, cultivation was conducted in an incubator (37° C., 100% relative humidity, 5% CO2) for 48 hours. Subsequently, the liquid containing the medium and the sample in the well was removed, and a respective complete medium (shown in Table 3 above) containing 10% CCK-8 (Cell Counting Kit-8)(Dojindo Molecular Technologies, Inc., Cat. No. CK04-13) was added. Cultivation was performed in an incubator (37° C.) for 2 to 4 hours, followed by gently shaking.

Compound `Cc1ccc(NC(=O)c2ccc(CN3CCN(C)CC3)cc2)cc1Nc1nccc(-c2cccnc2)n1` [Glivec] has an inhibition at 0.0184 µg/mL (0.0184 μg/mL) of 17.7%, an inhibition at 0.0369 µg/mL (0.0369 μg/mL) of 35.7% and an inhibition at 0.0737 µg/mL (0.0737 μg/mL) of 55.3%. For the same compound, the inhibition at 0.1474 µg/mL (0.1474 μg/mL) was 66.2%, the inhibition at 0.2949 µg/mL (0.2949 μg/mL) was 81.5% and the inhibition at 0.5897 µg/mL (0.5897 μg/mL) was 88.9%.

Source: patent publication US20180071354A1, “SELECTIVE BREEDING METHOD OF ANTITUMOR/ANTICANCER CAMELLIA SINENSIS STRAIN, AND TEA PRODUCT OF SUCH STRAIN” (FUJIAN AGRICULTURE AND FORESTRY UNIVERSITY, priority 2015, published 2018)
